{"source": "patent US6514979B1", "about": "“Synergistic combinations of guanosine analog reverse transcriptase inhibitors and inosine monophosphate dehydrogenese inhibitors and uses therefor” (University of Maryland Biotechnology Institute, priority 1999, dated 2003)", "key": {"HIV-1 [1]": {"system": "HIV-1", "test": "combined effects of MA and available nucleoside analogs (Table 2)", "format": "cell-based", "from_the_text": "Although MA directly depletes cellular guanosine pools through inhibition of IMPDH, this may result secondarily in perturbations of other cellular enzyme activities. Such perturbations could result in beneficial or detrimental therapeutic effects. The combined effects of MA and available nucleoside analogs are described in Table 2: […]"}, "cellular guanosine pools": {"system": "cellular guanosine pools", "test": "addition of deoxynucleosides to the culture media", "format": "cell-based", "settings": "not shown", "from_the_text": "MA may synergize with abacavir via depletion of cellular guanosine pools, effectively increasing the intracellular concentration of abacavir. However, MA may also act via a general inhibitory effect on T lymphocyte proliferation, as has been hypothesized in the case of hydroxyurea (Lori F., Malykh A. G., Foli A., Maserati R., De Antoni A., Minoli L., Padrini D., Degli Antoni A., Barchi E., Jessen H., Wainberg M. A., Gallo R. C., Lisziewicz J. Combination of a drug targeting the cell with a drug targeting the virus controls human immunodeficiency virus type 1 resistance. AIDS Res Hum Retroviruses 1997; 13(16): 1403-9; De Boer R. J., Boucher C. A., Perelson A. S. Target cell availability and the successful suppression of HIV by hydroxyurea and didanosine. AIDS 1998; 12(13): 1567-70)."}, "PBMC": {"system": "PBMC", "test": "MTT cell proliferation assay of PBMC cultures", "settings": "0.5 μM MA", "protocol": "Cellular proliferation in culture in the presence or absence of MA and abacavir was measured using a commercial MMT cell proliferation assay, as per the manufacturer's instructions (Boehringer Mannheim)."}, "[2]": {"settings": "single 1000 mg dose in a healthy individual; cited from earlier work"}, "neutrophil function": {"system": "neutrophil function", "settings": "concentrations of up to 10 μM; cited from earlier work"}, "HIV-1 [3]": {"system": "HIV-1", "settings": "1-10 μM; cited from earlier work"}, "IL-2 receptor signaling": {"system": "IL-2 receptor signaling", "settings": "high concentrations; cited from earlier work"}, "HIV-1 IIIb": {"system": "HIV-1 IIIb", "test": "p24 production by HIV-1 IIIb infected PHA-stimulated PBMCs, Greco interaction model", "format": "cell-based", "settings": "HIV IIIb in PBMCs; for IC50: p24 day 7, Greco model estimate", "description": "(§1) Primary PBMCs were separated from whole blood of HIV seronegative donors by density centrifugation over Ficoll-Hypaque (Sigma). The culture medium consisted of RPMI supplemented with 10% fetal bovine serum (FBS), 2 mM glutamine and penicillin/streptomycin (Gibco, Grand Island, N.Y.). For infection studies involving PBMCs, cells were stimulated with 10 μg/mL phytohemagglutinin (PHA; Boehringer Mannheim, Indianapolis, Ind.) and cultured for 3 days. Stimulated PBMCs were infected by incubation with virus at a multiplicity of infection of 1000 TCID50/d10^6 PBMC for 2 hours. PBMC were then washed three times with PBS and cultured in 5% CO2 at 37° C, in RPMI/10% FBS supplemented with 10 units/mL IL-2 (Boehringer Mannheim) and drugs as appropriate. PBMC were seeded in 96-well flat-bottom plates at a density of 2×10^5 PBMC/200 μL. Following three days of culture, half of the medium was replaced with fresh medium containing IL-2 and drugs. After 7 days of culture HIV-1 p24 production in the culture supernatant was assayed by ELISA (Coulter, Hialeah, Fla.).\nAdditive antiviral effect was analyzed according to the definition of Loewe, using the interaction model of Greco et al. as was described above. This model is fully parametric, and point estimates of the model parameters are obtained in a traditional weighted, nonlinear least-squares approach. The model follows the equation below: [formula]\nwhere α (alpha) is the synergism-antagonism interaction parameter, IC50.1 and IC50.2 are the drug concentrations resulting in 50% inhibition for drug 1 and drug 2, respectively; D1 and D2 are the concentration of drugs tested; Econ is the control effect in the absence of either drug, E is the observed effect , and m 1 and m 2 are the slope parameters for each drug. If the estimate of α is zero, the drug combination is additive; if α is positive, the interaction is synergistic; if α is negative, the interaction is antagonistic. […] That is, if the 95% confidence interval encompasses zero, the interaction is additive. […] This model was implemented using the ADAPT II programs (D'Argenio D. Z, Schumitzky A. ADAPT II: a program package for simulation identification and optimal experimental design. 1990. Biomedical Simulations Resource, Univ. Of Southern California, Los Angeles). Each drug combination was tested in triplicate so as to obtain an estimate of the variance of the effect at different drug concentration combinations.\nThe combined effect of abacavir and MA was examined in PBMC culture systems. PBMCs from a seronegative donor were stimulated with PHA and infected with the T-cell tropic isolate HIV-1 IIIb. At the clinically utilized dose (600 mg/day) of abacavir steady state peak serum levels are […] (4.47 μM; e.g.,see Ziagen package insert. Glaxo Wellcome, Inc., Research Triangle Park, N.C.). After a single 1000 mg dose of MA in a healthy individual, the mean peak serum level is 56.5 μM. Therefore, infected cells were cultured in the presence of abacavir from 0 to 4 μM, and in the presence of 0 to 1 μM of MA. On day 7 after infection the number of viable cells was determined by MTT assay (Boehringer Mannheim), and p24 antigen in the culture supernatant was measured.\nThe interaction of abacavir and MA in the suppression of HIV IIIb replication in PBMCs was analyzed using the Greco model as described above. Each data point was determined in triplicate. Each observation was weighted by the inverse of the observation variance. These parameters and their 95% confidence bounds are shown below: […]"}, "[4]": {"target": "inosine monophosphate dehydrogenase (IMPDH)", "settings": "literature values; read-out: Ki for IMPDH inhibition; cited from earlier work"}, "Type II isoform of IMPDH": {"target": "Type II isoform of IMPDH (Homo sapiens, UniProt P12268)", "settings": "stimulated lymphocytes isoform; cited from earlier work"}, "Wild-type HIV": {"system": "Wild-type HIV", "test": "replication of wild-type HIV-1 in PBMCs, day 7 p24", "format": "cell-based", "settings": "Human immunodeficiency virus 1, PBMC; 4 μM abacavir", "description": "as §1"}, "HIV-1 [5]": {"system": "HIV-1", "settings": "monotherapy; cited from earlier work"}, "[6]": {"system": "resistant HIV encoding M184V", "test": "replication of M184V mutant HIV-1 in PBMCs, day 7 p24", "format": "cell-based", "settings": "Human immunodeficiency virus 1, PBMC, read-out: inhibition of resistant HIV encoding M184V", "description": "as §1"}, "[7]": {"system": "HIV reverse transcriptase M184V", "settings": "cited from earlier work"}}, "note": "Counter-ions that a name gives are not always drawn. Like-named read-outs stand apart in the source and are kept apart here."}
{"smiles": "OC[C@@H]1CC[C@H](n2cnc3c(O)ncnc32)O1", "note": "[didanosine, 2′,3′-dideoxyinosine]", "values": [{"measurement": "antiviral effect of nucleoside analog alone", "setting": "HIV-1 [1]; concentration not given", "result": 11}]}
{"smiles": "COc1c(C)c2c(c(O)c1C/C=C(\\C)CCC(=O)OCCN1CCOCC1)C(=O)OC2", "note": "[MA, 2-morpholinoethyl ester of mycophenolic acid]", "values": [{"measurement": "inhibitory effect of MA after addition of deoxyadenosine", "setting": "cellular guanosine pools", "result": "no effect"}, {"measurement": "inhibitory effect of MA after addition of deoxyguanosine", "setting": "cellular guanosine pools", "result": "ablated the inhibitory effect"}, {"measurement": "antiviral effect of MA alone", "setting": "HIV-1 [1]; 0.125 μM MA", "result": 1.3}, {"measurement": "antiviral effect of MA alone", "setting": "HIV-1 [1]; 0.5 μM MA", "result": 9.3}, {"measurement": "antiproliferative effect", "setting": "PBMC", "result": "modest antiproliferative effect"}, {"measurement": "mean peak serum level", "setting": "[2]", "result": 56.5, "unit": "µM"}, {"measurement": "effect on neutrophil function", "setting": "neutrophil function", "result": "do not inhibit neutrophil function"}, {"measurement": "effect on replication of HIV-1 in vitro", "setting": "HIV-1 [3]", "result": "inhibit ed the replication"}, {"measurement": "effect on IL-2 receptor signaling", "setting": "IL-2 receptor signaling", "result": "do not disrupt IL-2 receptor signaling"}, {"measurement": "m MA (slope parameter)", "setting": "HIV-1 IIIb; Greco model estimate", "result": 1.90}, {"measurement": "IC50", "setting": "HIV-1 IIIb; read-out: IC50 MA", "result": 110, "unit": "nM"}, {"measurement": "IC50", "setting": "HIV-1 IIIb; Human immunodeficiency virus 1, IIIB, PBMC, 168 h, read-out: IC50 MA", "result": 100, "unit": "nM"}]}
{"smiles": "COc1c(C)c2c(c(O)c1C/C=C(\\C)CCC(=O)O)C(=O)OC2", "note": "[Mycophenolic acid]", "values": [{"measurement": "Ki", "setting": "[4]", "result": "2 to 10", "unit": "nM"}, {"measurement": "sensitivity of Type II isoform versus the isoform predominant in other cell lineages", "setting": "Type II isoform of IMPDH", "result": "four times more sensitive"}]}
{"smiles": "Cc1cn([C@H]2C=C[C@@H](CO)O2)c(=O)[nH]c1=O", "note": "[stavudine, 2′,3′-dihydro-3′-deoxythymidine]", "values": [{"measurement": "antiviral effect of nucleoside analog alone", "setting": "HIV-1 [1]; 2 μM", "result": 115}]}
{"smiles": "Nc1ccn([C@H]2CC[C@@H](CO)O2)c(=O)n1", "note": "[zalcitibine, 2′,3′-dideoxycytidine]", "values": [{"measurement": "antiviral effect of nucleoside analog alone", "setting": "HIV-1 [1]; concentration not given", "result": 3.9}]}
{"smiles": "Nc1nc(NC2CC2)c2ncn([C@H]3C=C[C@@H](CO)C3)c2n1", "note": "[abacavir, (1S,cis)-4-[2-amino-6-(cyclopropylamino)-9H-purin-9-yl]-2-cyclopentene-1-methanol sulfate]", "values": [{"measurement": "antiviral effect of nucleoside analog alone", "setting": "HIV-1 [1]; 2 μM", "result": 2.7}, {"measurement": "inhibition at 4 µM", "setting": "Wild-type HIV", "result": 98, "unit": "%"}, {"measurement": "drop in plasma HIV-1 RNA", "setting": "HIV-1 [5]", "result": 1.55, "unit": "log"}, {"measurement": "m abacavir (slope parameter)", "setting": "HIV-1 IIIb; Greco model estimate", "result": 0.70}, {"measurement": "IC50", "setting": "HIV-1 IIIb; read-out: IC50 abacavir", "result": 630, "unit": "nM"}, {"measurement": "IC50", "setting": "HIV-1 IIIb; Human immunodeficiency virus 1, IIIB, PBMC, 168 h, read-out: IC50 abacavir", "result": 626, "unit": "nM"}, {"measurement": "inhibition at 4 µM", "setting": "[6]", "result": 53, "unit": "%"}]}
{"smiles": "Nc1ccn([C@@H]2CS[C@H](CO)O2)c(=O)n1", "note": "(relative stereo) [3TC, (2R,cis)4-amino-1-(2-hydroxymethyl-1,3-oxathiolan-5-yl)-(1H)-pyrimidin-2-one]", "values": [{"measurement": "resistance conferred by M184V", "setting": "[7]", "result": "high level resistance"}]}
{"smiles": "Cc1cn([C@H]2C[C@H](N=[N+]=[N-])[C@@H](CO)O2)c(=O)[nH]c1=O", "note": "[zidovudine, 3′-azido-3′-deoxythymidine]", "values": [{"measurement": "antiviral effect of nucleoside analog alone", "setting": "HIV-1 [1]; concentration not given", "result": 84}]}
